Literature values in patent US7855190B2, “Methods of hormonal treatment utilizing contraceptive regimens with continuous estrogen administration” (Teva Women's Health, Inc., priority 2003, dated 2010).

Details: relative potency of estrogens

SMILES	amount roughly equivalent to 30 μg of ethinyl estradiol
C[C@]12CC[C@@H]3c4ccc(O)cc4CC[C@H]3[C@@H]1CC[C@@H]2O [17β-estradiol]	~2,000 μg
C#C[C@]1(O)CC[C@H]2[C@@H]3CCc4cc(OC)ccc4[C@H]3CC[C@@]21C [mestranol]	~60 µg

Same assay, conditions: relative potency of progestins

SMILES	amount equivalent to 0.050 mg of levonorgestrel
C#C[C@]1(O)CC[C@H]2[C@@H]3CCC4=CCCC[C@@H]4[C@H]3C(=C)C[C@@]21CC [desogestrel]	about 0.050 mg
C#CC1(O)CC[C@H]2[C@@H]3CCC4=CC(=O)CC[C@@H]4[C@H]3CC[C@@]21CC (mixture of isomers) [norgestrel]	about 0.100 mg
C#C[C@]1(O)C=C[C@H]2[C@@H]3CCC4=CC(=O)CC[C@@H]4[C@H]3CC[C@@]21CC [gestodene]	about 0.035 mg
C#C[C@]1(OC(C)=O)CC[C@H]2[C@@H]3CCC4=CC(=O)CC[C@@H]4[C@H]3CC[C@@]21C [norethindrone acetate]	about 0.175 mg
C#C[C@]1(O)CC[C@H]2[C@@H]3CCC4=CC(=O)CC[C@@H]4[C@H]3C(=C)C[C@@]21CC [3-ketodesogestrel]	about 0.050 mg
